# From patent publication EP0483928A1, “2-Saccharinylmethyl aryl carboxylates useful as proteolytic enzyme inhibitors and compositions and method of use” (STERLING WINTHROP INC., priority 1990, dated 1992)
# Target: T1, human leukocyte elastase (HLE) (Homo sapiens, UniProt P08246)
# T1 sequence (P08246 30-267): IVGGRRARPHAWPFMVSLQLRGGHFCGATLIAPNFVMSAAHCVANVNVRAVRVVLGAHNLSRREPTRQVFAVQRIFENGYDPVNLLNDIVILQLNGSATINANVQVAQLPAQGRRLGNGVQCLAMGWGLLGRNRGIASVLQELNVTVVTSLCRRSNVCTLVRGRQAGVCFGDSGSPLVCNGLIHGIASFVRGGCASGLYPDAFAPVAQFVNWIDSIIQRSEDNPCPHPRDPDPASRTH
# Assay: Inhibition of human leukocyte elastase: rate of inactivation kon and inhibition constant Ki* (koff/kon)
# Assay type: biochemical
# Conditions: Ki* = koff/kon, calculated from measured koff and kon; not a truly reversible Ki; read-out: K*i
# Procedure: Thus, instead of measuring a Ki, a Ki* is calculated which is defined as the ratio of the koff/kon, the rate of reactivation of the enzyme to the rate of inactivation of the enzyme. The values of koff and kon are measured and Ki* is then calculated.
# The rate of inactivation, kon, of enzymatic activity was determined for the compounds tested by measuring the enzyme activity of an aliquot of the respective enzyme as a function of time after addition of the test compound. […] The rate of inactivation is then equal to [formula] where [I] is the concentration of the inhibiting compound.
# The reactivation constant, koff, is similarly determined, and the inhibition constant, Ki*, is then calculated as Ki * = koff /kon [formula]
row,SMILES,Ki [nM]
1,"CC(C)c1cc(OCC(=O)OCc2ccccc2)cc2c1C(=O)N(COC(=O)c1c(Cl)cccc1Cl)S2(=O)=O [Example 7B, 6-(2-benzyloxy-2-oxoethoxy)-4-isopropyl-2-saccharinylmethyl 2,6-dichlorobenzoate]",0.056
2,"O=C(OCN1C(=O)C2=C(C3CCC2C3)S1(=O)=O)c1c(Cl)cccc1Cl (stereo not shown) [Example 8, 2-(2,6-dichlorobenzoyloxymethyl)4,5,6,7-tetrahydro-4,7-methano-1,2-benzisothiazol-3(2H)-one 1,1-dioxide]",0.6
3,"CC(C)C1CCCC2=C1C(=O)N(COC(=O)c1c(Cl)ccc(S(=O)(=O)N(C)CCN(C)C)c1Cl)S2(=O)=O (stereo not shown) [Example 9E, 4-isopropyl-4,5,6,7-tetrahydro-2-saccharinylmethyl 2,6-dichloro-3-[[2-(N,N-dimethylamino)ethyl]-N-methylaminosulfonyl]benzoate hydrochoride]",2
4,"CN(C)c1cccc2c1C(=O)N(COC(=O)c1c(Cl)cccc1Cl)S2(=O)=O [Example 11, 4-dimethylamino-2-saccharinylmethyl 2,6-dichlorobenzoate]",0.2
